Results from patent US20230265116A1, “DEGRADATION OF (EGFR) BY CONJUGATION OF EGFR INHIBITORS WITH E3 LIGASE LIGAND AND METHODS OF USE” (BEIGENE, LTD., priority 2020, published 2023).
Counter-ions that a name gives are not always drawn.

Experiments:
EGFR (HCC827 cells) = biological target: T1, EGFR (HCC827 cells) (Homo sapiens, UniProt P00533, DEL746-750); experiment: EGFR degradation HTRF assay, HCC827 cells; type: cell-based; settings: HCC827, 16h treatment; for Dmax: maximum percentage of degradation
T1 construct: endogenous in cells; host or cells: HCC827
Method in brief: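 BaF3 (WT, Del19/T790M/C797S) and HCC827 cells exposed 16 h at 37 °C, 5% CO2 to compounds in 0.2% DMSO medium, 8 doses from 10 uM top, 5-fold steps. Lysates read by HTRF (665/620 nm); degradation % vs DMSO control, DC50 from four-parameter fit, Dmax as maximal degradation.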

[1] = biological target: T2, EGFR L858R/T790M (H1975-clone #36, homozygous) (Homo sapiens, UniProt P00533, L858R/T790M); experiment: EGFR degradation HTRF assay, H1975-clone #36 cells; type: cell-based; settings: H1975 #36, 16h treatment; for Dmax: NCI-H1975, maximum percentage of degradation
T2 construct: designed to specifically target WT EGFR but preserve the L858R/T790M copy; host or cells: H1975-clone #36
Protocol: H1975-clone #36(L858R/T790M). H1975 cell heterozygously (from ATCC) contains alleles of WT and L858R/T790M EGFR. H1975-clone #36(L858R/T790M) was generated by gene knockout, in which the EGFR targeting sgRNA was designed to specifically target WT EGFR but preserve the L858R/T790M copy. Followed by the gene knockout, the edited H1975 cells were seeded in 96 well plates at the concentration of 1 cell/well, cultured for about 2 weeks to allow single clones formation. The formed clones were screened by DNA sequencing for the desired edition. H1975-clone #36 was confirmed as a homozygous L858R/T790M EGFR clone.
BaF3 WT(wild type), BaF3-LTC(L858R/T790M/C797S) and BaF3-DTC(Del19/T790M/C797S) cells are treated with compounds diluted in 0.2% DMSO cell culture medium and incubate for 16h, 37° C., 5% CO2, H1975-#36, H1975-#28, H1975-#23 and HCC827 cells are treated with compounds diluted in 0.2% DMSO cell culture medium on day 2, incubate for 16h, 37° C., 5% CO2.the final concentriation of compounds in all assay is start with 10 uM, 5-fold dilution, total 8 doses were included.
After 16h treatment, add HTRF lysis buffer to each well; seal the plate and incubate 1 hour at room temperature on a plate shaker; Once the cells are lysed, 16 μL of cell lysate are transferred to a PE 384-well HTRF detection plate; 4 μL of pre-mixed HTRF antibodies are added to each well; Cover the plate with a plate sealer, spin 1000 rpm for 1 min, Incubate overnight at room temperature; Read on BMG PheraStar with HTRF protocol (337 nm-665 nm-620 nm).
The inhibition (degradation) percentage of the compound was calculated by the following equation: Inhibition percentage of Compound=100-100×(Signal-low control)/(High control-low control), wherein signal=each test compound group
High control=Cell group with added DMSO and without compound, indicating microplate readings without EGFR degradation;
Dmax is the maximum percentage of inhibition (degradation).
The IC50 (DC50) value of a compound can be obtained by fitting the following equation
Y=Bottom+(TOP−Bottom)/(1+((IC50/X)^hillslope))
Wherein, X and Y are known values, and IC50, Hillslope, Top and Bottom are the parameters obtained by fitting with software. Y is the inhibition percentage (calculated from the equation), X is the concentration of the compound; IC50 is the concentration of the compound when the 50% inhibition is reached. The smaller the IC50 value is, the stronger the inhibitory ability of the compound is. Vice versa, the higher the IC50 value is, the weaker the inhibitory ability of the compound is; Hillslope represents the slope of the fitted curve, generally around 1*; Bottom represents the minimum value of the curve obtained by data fitting, which is generally 0%±20%; Top represents the maximum value of the curve obtained by data fitting, which is generally 100%±20%. The experimental data were fitted by calculating and analyzing with Dotmatics data analysis software.

T1 sequence (P00533 with tags, fused parts or gaps DEL746-750): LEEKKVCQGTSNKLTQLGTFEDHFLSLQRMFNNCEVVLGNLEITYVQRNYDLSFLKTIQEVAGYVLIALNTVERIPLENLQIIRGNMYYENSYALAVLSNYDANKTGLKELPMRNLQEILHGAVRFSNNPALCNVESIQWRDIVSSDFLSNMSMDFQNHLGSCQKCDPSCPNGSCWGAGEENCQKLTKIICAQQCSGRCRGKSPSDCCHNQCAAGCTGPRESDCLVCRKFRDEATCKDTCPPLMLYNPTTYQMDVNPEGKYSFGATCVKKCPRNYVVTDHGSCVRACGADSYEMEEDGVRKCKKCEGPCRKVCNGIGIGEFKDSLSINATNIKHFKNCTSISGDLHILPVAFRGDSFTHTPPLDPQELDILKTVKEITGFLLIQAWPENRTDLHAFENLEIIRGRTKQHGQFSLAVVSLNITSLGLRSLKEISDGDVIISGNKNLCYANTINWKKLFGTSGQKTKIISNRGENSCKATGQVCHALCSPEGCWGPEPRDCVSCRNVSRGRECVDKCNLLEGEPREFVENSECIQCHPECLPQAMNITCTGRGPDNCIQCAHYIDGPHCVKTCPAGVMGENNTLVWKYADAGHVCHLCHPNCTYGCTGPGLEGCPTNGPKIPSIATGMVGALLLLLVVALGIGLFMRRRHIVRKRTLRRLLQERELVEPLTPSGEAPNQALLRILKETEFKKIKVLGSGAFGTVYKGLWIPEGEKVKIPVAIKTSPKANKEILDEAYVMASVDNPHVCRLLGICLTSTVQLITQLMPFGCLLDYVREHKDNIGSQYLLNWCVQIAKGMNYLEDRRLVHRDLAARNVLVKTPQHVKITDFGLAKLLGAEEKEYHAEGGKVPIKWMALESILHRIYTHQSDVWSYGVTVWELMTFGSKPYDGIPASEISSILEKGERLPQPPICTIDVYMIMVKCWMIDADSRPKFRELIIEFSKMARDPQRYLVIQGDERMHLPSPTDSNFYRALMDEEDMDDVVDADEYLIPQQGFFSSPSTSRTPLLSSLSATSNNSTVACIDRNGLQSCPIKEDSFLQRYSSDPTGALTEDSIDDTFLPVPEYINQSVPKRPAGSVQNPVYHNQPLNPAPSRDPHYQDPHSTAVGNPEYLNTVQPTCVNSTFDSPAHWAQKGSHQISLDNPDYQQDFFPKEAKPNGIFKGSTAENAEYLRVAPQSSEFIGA
T2 sequence (P00533 25-1210 T790M/L858R): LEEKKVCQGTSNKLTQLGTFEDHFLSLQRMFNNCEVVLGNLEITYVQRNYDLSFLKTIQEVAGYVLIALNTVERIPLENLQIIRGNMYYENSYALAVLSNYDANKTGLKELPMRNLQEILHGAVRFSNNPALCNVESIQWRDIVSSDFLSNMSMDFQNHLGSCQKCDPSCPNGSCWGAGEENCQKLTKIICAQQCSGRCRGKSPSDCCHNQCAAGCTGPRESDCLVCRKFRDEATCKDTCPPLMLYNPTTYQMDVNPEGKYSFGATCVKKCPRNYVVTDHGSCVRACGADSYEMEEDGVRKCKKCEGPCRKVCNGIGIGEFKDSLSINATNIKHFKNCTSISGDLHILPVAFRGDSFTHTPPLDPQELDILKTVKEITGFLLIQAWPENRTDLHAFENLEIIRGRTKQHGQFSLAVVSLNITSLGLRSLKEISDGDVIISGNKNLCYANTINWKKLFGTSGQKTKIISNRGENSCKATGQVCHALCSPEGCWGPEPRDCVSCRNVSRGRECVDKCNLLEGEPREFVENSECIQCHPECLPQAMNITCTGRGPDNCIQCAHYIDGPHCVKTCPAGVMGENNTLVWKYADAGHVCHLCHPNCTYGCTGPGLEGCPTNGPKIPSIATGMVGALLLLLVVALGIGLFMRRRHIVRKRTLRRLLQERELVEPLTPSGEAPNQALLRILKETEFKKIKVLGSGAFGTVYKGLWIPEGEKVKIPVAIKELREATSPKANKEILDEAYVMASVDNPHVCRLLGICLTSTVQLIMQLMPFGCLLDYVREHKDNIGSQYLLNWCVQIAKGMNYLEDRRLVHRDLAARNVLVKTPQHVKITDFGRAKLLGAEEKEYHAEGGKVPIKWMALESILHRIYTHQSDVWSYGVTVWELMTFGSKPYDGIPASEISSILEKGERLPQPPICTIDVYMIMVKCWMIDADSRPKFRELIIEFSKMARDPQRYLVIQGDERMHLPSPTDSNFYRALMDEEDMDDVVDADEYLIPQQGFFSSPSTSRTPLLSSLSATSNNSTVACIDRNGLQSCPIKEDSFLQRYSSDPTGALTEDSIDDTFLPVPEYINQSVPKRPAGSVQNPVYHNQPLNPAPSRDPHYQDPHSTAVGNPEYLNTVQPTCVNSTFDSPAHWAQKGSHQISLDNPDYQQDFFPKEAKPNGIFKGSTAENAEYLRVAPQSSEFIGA

With `CCc1cc(Nc2ncc(Br)c(Nc3ccc4nccnc4c3P(C)(C)=O)n2)c(OC)cc1N1CCC(N2CCN(C(=O)CC3CCN(c4ccc(C5CCC(=O)NC5=O)cc4)CC3)CC2)CC1` (stereo not drawn) [Example 24, 3-(4-(4-(2-(4-(1-(4-((5-bromo-4-((5-(dimethylphosphoryl)quinoxalin-6-yl)amino)pyrimidin-2-yl)amino)-2-ethyl-5-methoxyphenyl)piperidin-4-yl)piperazin-1-yl)-2-oxoethyl)piperidin-1-yl)phenyl)piperidine-2,6-dione] the DC50 (EGFR (HCC827 cells)) was 6.59 nM, the Dmax (EGFR (HCC827 cells)) was 74.7% and the DC50 [1] was 5.72 nM. It also gave a Dmax [1] of 65.5%.
For `COc1cc(N2CCC(N3CCN(C(=O)C4CCN(CC5CCN(c6ccc7c(c6)C(=O)N(C6CCC(=O)NC6=O)C7=O)CC5)CC4)CC3)CC2)ccc1Nc1ncc(Cl)c(Nc2ccccc2N(C)S(C)(=O)=O)n1` (stereo not drawn) [Example 129, N-(2-((5-chloro-2-((4-(4-(4-(1-((1-(2-(2,6-dioxopiperidin-3-yl)-1,3-dioxoisoindolin-5-yl)piperidin-4-yl)methyl)piperidine-4-carbonyl)piperazin-1-yl)piperidin-1-yl)-2-methoxyphenyl)amino)pyrimidin-4-yl)amino)phenyl)-N-methylmethanesulfonamide], the DC50 (EGFR (HCC827 cells)) was 11.1 nM, the Dmax (EGFR (HCC827 cells)) was 87.2% and the DC50 [1] was 9.29 nM. The Dmax [1] was 85.4%.
`CCc1cc(Nc2ncc(Br)c(Nc3ccc4nccnc4c3P(C)(C)=O)n2)c(OC)cc1N1CCC(N2CCN(CC3CCN(c4ccc(C5CCC(=O)NC5=O)cc4)CC3)CC2)CC1` (stereo not drawn) [Example 22, 3-(4-(4-((4-(1-(4-((5-bromo-4-((5-(dimethylphosphoryl)quinoxalin-6-yl)amino)pyrimidin-2-yl)amino)-2-ethyl-5-methoxyphenyl)piperidin-4-yl)piperazin-1-yl)methyl)piperidin-1-yl)phenyl)piperidine-2,6-dione] showed a DC50 (EGFR (HCC827 cells)) of 6.26 nM, a Dmax (EGFR (HCC827 cells)) of 67.5% and a DC50 [1] of over 10000 nM. It also gave a Dmax [1] of 41.7%.
With `COc1cc(N2CCN(CC3CCN(c4ccc(N5CCC(=O)NC5=O)cc4)CC3)CC2)c(C)cc1Nc1ncc(Br)c(Nc2ccc3nccnc3c2P(C)(C)=O)n1` [Example 95, 1-(4-(4-((4-(4-((5-bromo-4-((5-(dimethylphosphoryl)quinoxalin-6-yl)amino)pyrimidin-2-yl)amino)-5-methoxy-2-methylphenyl)piperazin-1-yl)methyl)piperidin-1-yl)phenyl)dihydropyrimidine-2,4(1H,3H)-dione] the DC50 (EGFR (HCC827 cells)) was 147 nM, the Dmax (EGFR (HCC827 cells)) was 71.3% and the DC50 [1] was 9030 nM. It also gave a Dmax [1] of 61.6%.
For `COc1cc(N2CCC(N(C)CC3CCN(c4ccc(C5CCC(=O)NC5=O)cc4)CC3)CC2)c(C)cc1Nc1ncc(Br)c(Nc2ccc3nccnc3c2P(C)(C)=O)n1` (stereo not drawn) [Example 77, 3-(4-(4-(((1-(4-((5-bromo-4-((5-(dimethylphosphoryl)quinoxalin-6-yl)amino)pyrimidin-2-yl)amino)-5-methoxy-2-methylphenyl)piperidin-4-yl)(methyl)amino)methyl)piperidin-1-yl)phenyl)piperidine-2,6-dione], the DC50 (EGFR (HCC827 cells)) was 9.18 nM, the Dmax (EGFR (HCC827 cells)) was 70.9% and the DC50 [1] was 2.77 nM. It also gave a Dmax [1] of 63%.
`CCc1cc(Nc2ncc(Br)c(Nc3ccc4nccnc4c3P(C)(C)=O)n2)c(OC)cc1N1CCC(N2CCN(CCC3CCN(c4ccc(N5CCC(=O)NC5=O)cc4)CC3)CC2)CC1` [Example 55, 1-(4-(4-(2-(4-(1-(4-((5-bromo-4-((5-(dimethylphosphoryl)quinoxalin-6-yl)amino)pyrimidin-2-yl)amino)-2-ethyl-5-methoxyphenyl)piperidin-4-yl)piperazin-1-yl)ethyl)piperidin-1-yl)phenyl)dihydropyrimidine-2,4(1H,3H)-dione] was tested, and the DC50 (EGFR (HCC827 cells)) was 313 nM, the Dmax (EGFR (HCC827 cells)) was 56.2% and the DC50 [1] was over 10000 nM. The Dmax [1] was 18.7%.
`COc1cc(N2CCN(CC3CCN(c4ccc(N5CCC(=O)NC5=O)c(C)c4)CC3)CC2)c(C)cc1Nc1ncc(Br)c(Nc2ccc3nccnc3c2P(C)(C)=O)n1` [Example 99, 1-(4-(4-((4-(4-((5-bromo-4-((5-(dimethylphosphoryl)quinoxalin-6-yl)amino)pyrimidin-2-yl)amino)-5-methoxy-2-methylphenyl)piperazin-1-yl)methyl)piperidin-1-yl)-2-methylphenyl)dihydropyrimidine-2,4(1H,3H)-dione] was tested, and the DC50 (EGFR (HCC827 cells)) was 60.1 nM, the Dmax (EGFR (HCC827 cells)) was 78.5% and the DC50 [1] was over 10000 nM. It also gave a Dmax [1] of 35.6%.
`COc1cc(N2CCN(C3CCN(CCc4ccc(C5CCC(=O)NC5=O)cc4)CC3)CC2)ccc1Nc1ncc(Cl)c(Nc2ccccc2N(C)S(C)(=O)=O)n1` (stereo not drawn) [Example 120, N-(2-((5-chloro-2-((4-(4-(1-(4-(2,6-dioxopiperidin-3-yl)phenethyl)piperidin-4-yl)piperazin-1-yl)-2-methoxyphenyl)amino)pyrimidin-4-yl)amino)phenyl)-N-methylmethanesulfonamide hydrochloride] gave a DC50 (EGFR (HCC827 cells)) of 14.2 nM, a Dmax (EGFR (HCC827 cells)) of 86.4% and a DC50 [1] of 5.22 nM. It also gave a Dmax [1] of 91.6%.
`COc1cc(N2CCC(N3CCN(C(=O)C[C@H](NC(=O)[C@@H]4C[C@@H](O)CN4C(=O)[C@@H](c4cc(C)no4)C(C)C)c4ccc(-c5scnc5C)cc4)CC3)CC2)ccc1Nc1ncc(Cl)c(Nc2ccccc2P(C)(C)=O)n1` [Example 117, (2S,4R)—N—((S)-3-(4-(1-(4-((5-chloro-4-((2-(dimethylphosphoryl)phenyl)amino)pyrimidin-2-yl)amino)-3-methoxyphenyl)piperidin-4-yl)piperazin-1-yl)-1-(4-(4-methylthiazol-5-yl)phenyl)-3-oxopropyl)-4-hydroxy-1-((R)-3-methyl-2-(3-methylisoxazol-5-yl)butanoyl)pyrrolidine-2-carboxamide] showed a DC50 (EGFR (HCC827 cells)) of 17 nM, a Dmax (EGFR (HCC827 cells)) of 76.2% and a DC50 [1] of 67.4 nM. It also gave a Dmax [1] of 86.7%.
Work on `COc1cc(N2CCC(N(C)CC3CCN(c4ccc(N5CCC(=O)NC5=O)cc4F)CC3)CC2)c(C)cc1Nc1ncc(Br)c(Nc2ccc3nccnc3c2P(C)(C)=O)n1` [Example 82, 1-(4-(4-(((1-(4-((5-bromo-4-((5-(dimethylphosphoryl)quinoxalin-6-yl)amino)pyrimidin-2-yl)amino)-5-methoxy-2-methylphenyl)piperidin-4-yl)(methyl)amino)methyl)piperidin-1-yl)-3-fluorophenyl)dihydropyrimidine-2,4(1H,3H)-dione] yielded a DC50 (EGFR (HCC827 cells)) of 14.7 nM, a Dmax (EGFR (HCC827 cells)) of 74% and a DC50 [1] of over 10000 nM. For the same compound, the Dmax [1] was 12.2%.
With `COc1cc(N2CCC(N(C)CC3CCN(c4ccc(N5CCC(=O)NC5=O)c(F)c4)CC3)CC2)c(C)cc1Nc1ncc(Br)c(Nc2ccc3nccnc3c2P(C)(C)=O)n1` [Example 81, 1-(4-(4-(((1-(4-((5-bromo-4-((5-(dimethylphosphoryl)quinoxalin-6-yl)amino)pyrimidin-2-yl)amino)-5-methoxy-2-methylphenyl)piperidin-4-yl)(methyl)amino)methyl)piperidin-1-yl)-2-fluorophenyl)dihydropyrimidine-2,4(1H,3H)-dione] the DC50 (EGFR (HCC827 cells)) was 25.8 nM, the Dmax (EGFR (HCC827 cells)) was 68.8% and the DC50 [1] was over 10000 nM. The Dmax [1] was 5.13%.
In the case of `COc1cc(N2CCN(CCCC(=O)N[C@H](C(=O)N3C[C@H](O)C[C@H]3C(=O)N[C@@H](C)c3ccc(-c4scnc4C)cc3)C(C)(C)C)CC2)c(C)cc1Nc1ncc(Br)c(Nc2ccc3nccnc3c2P(C)(C)=O)n1` [Example 102, (2S,4R)-1-((S)-2-(4-(4-(4-((5-bromo-4-((5-(dimethylphosphoryl)quinoxalin-6-yl)amino)pyrimidin-2-yl)amino)-5-methoxy-2-methylphenyl)piperazin-1-yl)butanamido)-3,3-dimethylbutanoyl)-4-hydroxy-N—((S)-1-(4-(4-methylthiazol-5-yl)phenyl)ethyl)pyrrolidine-2-carboxamide], the DC50 (EGFR (HCC827 cells)) is reported as 70.1 nM, the Dmax (EGFR (HCC827 cells)) is reported as 75.9% and the DC50 [1] is reported as 81.7 nM. It also gave a Dmax [1] of 65.1%.
